US20070179113A1, “GM-CSF gene therapy for Crohn's disease using an improved regulated expression system” (Schering Aktiengesellachaft, priority 2005, published 2007)
Where two headings read alike, the source gives them in different places.

Columns and labels:
DSS-induced colitis = DSS-induced colitis model (7% DSS), proof of concept with pCMV-GMCSF plasmid DNA; assay type: in vivo, mice; details: plasmid single injection day 0 + EP, drugs and protein daily
Method: Two concentrations of pCMV-mGMCSF were tested side by side with a control plasmid (pNull) and two mGM-CSF protein formulations, non-pegylated and pegylated in the DSS-induced colitis model (N=10/group). A single plasmid DNA injection was administered at day 0 followed by electroporation. Murine GM-CSF protein was injected s.c. daily. Disease was induced with 7% DSS in the drinking water and clinical scores (DIA) were recorded daily.
(§1) Likewise, the DSS-induced mouse colitis model is useful for evaluating therapies for UC, IBD and CD. Disease is induced in mice by daily administration of 5% or 7% dextran sodium sulfate (DSS) in the drinking water over 8 days. Disease progression is monitored by the Daily Activity Index (DAI), a cumulative index of: weight loss, stool consistency, and rectal bleeding, which mimics the symptoms of UC, IBD and/or CD.
vii. […] In this study the efficacy of pGMCSF plasmid DNA was evaluated side by side with Mesopram, Metronidazole, non-pegylated or pegylated mGM-CSF. The disease was induced using 7% DSS, administered daily in the drinking water. Mesopram, Metronidazole and mGM-CSF protein were administered daily, using the same dosing regimen as described for the validation study. pGMCSF plasmid DNA was injected at day 0 followed by electroporation. […]

[1] = mGM-CSF concentration in sera at day 8 of the DSS colitis study; details: final day of DSS study
Method: (§2) At day 8, the final day of the study, mGM-CSF concentrations were measured in sera of all mice.

acute EAE in SJL mice = assay: Mouse acute EAE model, mIFN-β protein; assay type: in vivo; details: IP twice daily; Mesopram 9 mg/kg, Prednisolone 2.5 mg/kg
[2] = system: DSS-induced colitis in Balb/C mice; assay: DSS-induced colitis model (5% DSS), validation, Disease Activity Index; assay type: in vivo; details: daily treatment, Mesopram/Metronidazole 50 mg/kg IP, mGM-CSF 5 μg non-pegylated, 5 or 10 μg pegylated
Method: Disease was induced in BalbC mice (N=10/group) by DSS (5%) applied daily in the drinking water. Mesopram, Metronidazole, or yeast expressed non-pegylated respectively pegylated mGM-CSF, was administered daily over a period of 8 days. Clinical scores (Daily Activity Index (DAI), a cumulative index of: weight loss, stool consistency, and rectal bleeding) were recorded daily.
as §1
vi. DSS-induced colitis model. Prior to the gene delivery study the model was established and validated in Balb/C mice using non-pegylated and pegylated mGM-CSF protein. Disease was induced in Balb/C mice with 5% dextran sodium sulfate (DSS), provided in the drinking water every day over a period of 8 days. As the main endpoint, the Disease Activity Index (DAI, a cumulative index of: weight loss, stool consistency, and rectal bleeding) was recorded daily. […]

[3] = mouse, in vivo
Method: as §2

GAL-4 DBS = details: read-out: Kd for binding; cited from earlier work

Row | Compound | disease scores (DAI) (DSS-induced colitis) | GM-CSF in sera at day 8 [1] | clinical scores of EAE, positive controls (acute EAE in SJL mice) | DAI score [2] | GM-CSF in sera at day 8 [3] | Kd (GAL-4 DBS) [nM]
1 | CCCOc1cc([C@]2(C)CNC(=O)O2)ccc1OC [Mesopram, reference compound] | efficacious | not detectable | significantly decreased clinical scores | significantly reduced |  | 
2 | Cc1ncc([N+](=O)[O-])n1CCO [Metronidazole, reference compound] | efficacious |  |  | significantly reduced | not detectable | 
3 | C[C@]12C=CC(=O)C=C1CC[C@@H]1[C@@H]2[C@@H](O)C[C@@]2(C)[C@H]1CC[C@]2(O)C(=O)CO [Prednisolone] |  |  | significantly decreased clinical scores |  |  | 
4 | GAL-4 residues 1-100: N-terminal DNA binding fragment of yeast GAL-4 protein |  |  |  |  |  | 3
